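Following 48 hours of exposure in 96-well plates, responses at five concentrations were used to interpolate endpoints linearly. At the GI50, growth is halved. TGI is the concentration that stops growth completely.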
How the values were obtained:
Assay in all cases: inhibition of tumour cell growth, NCI panel, 48 h
[1] = system: MCF7 breast
[2] = system: SW-620 colon
[3] = system: PC-3 prostate
[4] = system: SN12C renal
[5] = system: A498 renal
[6] = system: OVCAR-4 ovarian
[7] = system: OVCAR-3 ovarian
[8] = system: COLO 205 colon
[9] = system: SNB-19 CNS
[10] = system: SK-OV-3 ovarian
[11] = system: CCRF-CEM leukemia
[12] = system: ACHN renal
[13] = system: MOLT-4 leukemia
[14] = system: M14 melanoma
[15] = system: HCT-116 colon
[16] = system: EKVX NSCLC
[17] = system: T-47D breast
[18] = system: OVCAR-5 ovarian
[19] = system: UO-31 renal
[20] = system: NCI-H23 lung
[21] = system: UACC-257 melanoma
[22] = system: RXF 393 renal
[23] = system: SF-539 CNS
[24] = system: HOP-92 NSCLC
[25] = system: MDA-MB-468 breast
[26] = system: NCI-H522 lung
[27] = system: SF-268 CNS
[28] = system: UACC-62 melanoma
[29] = system: HCT-15 colon
[30] = system: RPMI-8226 leukemia
[31] = system: BT-549 breast
[32] = system: SK-MEL-28 melanoma
[33] = system: CAKI-1 renal
[34] = system: SNB-75 CNS
[35] = system: HCC-2998 colon
[36] = system: HL-60(TB) leukemia
[37] = system: IGROV1 ovarian
[38] = system: NCI-H226 lung
[39] = system: SK-MEL-5 melanoma
[40] = system: OVCAR-8 ovarian
[41] = system: HOP-62 NSCLC
[42] = system: KM12 colon
[43] = system: MALME-3M melanoma
[44] = system: U251 CNS
[45] = system: A549 NSCLC
[46] = system: LOX IMVI melanoma
[47] = system: HT29 colon
[48] = system: NCI-H460 lung
[49] = system: SK-MEL-2 melanoma
[50] = system: HS 578T breast
[51] = system: SR leukemia
[52] = system: TK-10 renal
[53] = system: MDA-MB-435
[54] = system: 786-0 renal
[55] = system: MDA-MB-231 breast
[56] = system: SF-295 CNS
[57] = system: K-562 leukemia
[58] = system: DU-145 prostate
[59] = system: NCI/ADR-RES ovarian

CC(=O)Nc1ccc(-c2cn(-c3cccc(C(=O)Nc4cc(C(F)(F)F)cc(C(F)(F)F)c4)c3)nn2)cn1
GI50 [1]: 4.68 µM | TGI [1]: 21.8 µM | GI50 [2]: 7.85 µM | TGI [2]: 24.1 µM | GI50 [3]: 3.4 µM | TGI [3]: 10.8 µM | GI50 [4]: 11 µM | TGI [4]: 28.1 µM | GI50 [5]: 25.4 µM | TGI [5]: 42.1 µM | GI50 [6]: 11.9 µM | TGI [6]: 31.7 µM | GI50 [7]: 7.7 µM | TGI [7]: 21.2 µM | GI50 [8]: 7.14 µM | TGI [8]: 23.7 µM | GI50 [9]: 19.9 µM | TGI [9]: 50.2 µM | GI50 [10]: 13.5 µM | TGI [10]: 34.1 µM | GI50 [11]: 2.4 µM | TGI [11]: 6.76 µM | GI50 [12]: 11.1 µM | TGI [12]: 37.5 µM | GI50 [13]: 1.94 µM | TGI [13]: 6.12 µM | GI50 [14]: 4.39 µM | TGI [14]: 19.9 µM | GI50 [15]: 5.78 µM | TGI [15]: 27.7 µM | GI50 [16]: 11.2 µM | TGI [16]: 36.1 µM | GI50 [17]: 19.1 µM | TGI [17]: 91.6 µM | GI50 [18]: 18.7 µM | TGI [18]: 38.9 µM | GI50 [19]: 19.5 µM | TGI [19]: 37.2 µM | GI50 [20]: 14.2 µM | TGI [20]: 33.5 µM | GI50 [21]: 12.9 µM | TGI [21]: 36 µM | GI50 [22]: 11.2 µM | TGI [22]: 26.4 µM | GI50 [23]: 10 µM | TGI [23]: 24.8 µM | GI50 [24]: 2.7 µM | TGI [24]: 8.6 µM | GI50 [25]: 3.46 µM | TGI [25]: 16.2 µM | GI50 [26]: 12.3 µM | TGI [26]: 30.8 µM | GI50 [27]: 21 µM | TGI [27]: 64.7 µM | GI50 [28]: 13.5 µM | TGI [28]: 29.8 µM | GI50 [29]: 10.9 µM | TGI [29]: 33.1 µM | GI50 [30]: 3.46 µM | TGI [30]: 15 µM | GI50 [31]: 3.37 µM | TGI [31]: 8.51 µM | GI50 [32]: 12.9 µM | TGI [32]: 29.3 µM | GI50 [33]: 17.3 µM | TGI [33]: 45.1 µM | GI50 [34]: 5.84 µM | TGI [34]: 28.4 µM | GI50 [35]: 14 µM | TGI [35]: 34.3 µM | GI50 [36]: 1.23 µM | TGI [36]: 10.9 µM | GI50 [37]: 16.4 µM | TGI [37]: 35.3 µM | GI50 [38]: 13.8 µM | TGI [38]: 30.1 µM | GI50 [39]: 16.4 µM | TGI [39]: 33.2 µM | GI50 [40]: 8.26 µM | TGI [40]: 24.4 µM | GI50 [41]: 8.56 µM | TGI [41]: 22.5 µM | GI50 [42]: 0.417 µM | TGI [42]: 12.7 µM | GI50 [43]: 3.26 µM | TGI [43]: 12.6 µM | GI50 [44]: 3.85 µM | TGI [44]: 13.5 µM | GI50 [45]: 4.54 µM | TGI [45]: 16.3 µM | GI50 [46]: 4.53 µM | TGI [46]: 16.3 µM | GI50 [47]: 3.24 µM | TGI [47]: 12.9 µM | GI50 [48]: 4.2 µM | TGI [48]: 15.2 µM | GI50 [49]: 13.4 µM | TGI [49]: 28.1 µM | GI50 [50]: 6.17 µM | TGI [50]: 48.9 µM | GI50 [51]: 1.89 µM | TGI [51]: 5.18 µM | GI50 [52]: 26 µM | TGI [52]: 49.3 µM | GI50 [53]: 11.7 µM | TGI [53]: 28.1 µM | GI50 [54]: 3.41 µM | TGI [54]: 12 µM | GI50 [55]: 7.51 µM | TGI [55]: 25.1 µM | GI50 [56]: 14.2 µM | TGI [56]: 37.3 µM | GI50 [57]: 0.154 µM | TGI [57]: 10.5 µM | GI50 [58]: 10.4 µM | TGI [58]: 29.5 µM

Fc1ccc(F)c(CNc2nc(SCCN3CCOCC3)nc3c2cnn3CC(Cl)c2ccc(Br)cc2)c1 (configuration not stated)
GI50 [1]: 2.5 µM | TGI [1]: 8.54 µM | GI50 [2]: 2.78 µM | TGI [2]: 13.8 µM | GI50 [3]: 2.63 µM | TGI [3]: 62.6 µM | GI50 [4]: 3.22 µM | TGI [4]: > 100 µM | GI50 [5]: 4.2 µM | TGI [5]: > 100 µM | GI50 [6]: 3.22 µM | TGI [6]: > 100 µM | GI50 [7]: 5.71 µM | TGI [7]: > 100 µM | GI50 [8]: 2.13 µM | TGI [8]: 4.98 µM | GI50 [9]: 5.34 µM | TGI [9]: > 100 µM | GI50 [10]: 8.7 µM | TGI [10]: > 100 µM | GI50 [11]: 2.81 µM | TGI [11]: > 100 µM | GI50 [12]: 3.65 µM | TGI [12]: > 100 µM | GI50 [13]: 2.58 µM | TGI [13]: > 100 µM | GI50 [14]: 3.21 µM | TGI [14]: > 100 µM | GI50 [15]: 2.61 µM | TGI [15]: > 100 µM | GI50 [16]: 3.9 µM | TGI [16]: > 100 µM | GI50 [17]: 2.81 µM | TGI [17]: 38.1 µM | GI50 [18]: 4.59 µM | TGI [18]: > 100 µM | GI50 [19]: 2.87 µM | TGI [19]: > 100 µM | GI50 [20]: 4.91 µM | TGI [20]: > 100 µM | GI50 [21]: 3.25 µM | TGI [21]: 65 µM | GI50 [22]: 1.41 µM | TGI [22]: 4.83 µM | GI50 [23]: 3.57 µM | TGI [23]: > 100 µM | GI50 [24]: 3.03 µM | TGI [24]: 23.9 µM | GI50 [25]: 1.96 µM | TGI [25]: 4.88 µM | GI50 [26]: 3.51 µM | TGI [26]: 91.3 µM | GI50 [27]: 4.27 µM | TGI [27]: > 100 µM | GI50 [28]: 1.75 µM | TGI [28]: 3.73 µM | GI50 [29]: 1.76 µM | TGI [29]: 6.15 µM | GI50 [59]: 3.13 µM | TGI [59]: > 100 µM | GI50 [30]: 2.66 µM | TGI [30]: > 100 µM | GI50 [31]: 2.38 µM | TGI [31]: 5.96 µM | GI50 [32]: 2.84 µM | TGI [32]: > 100 µM | GI50 [33]: 3.66 µM | TGI [33]: > 100 µM | GI50 [34]: 2.28 µM | TGI [34]: > 100 µM | GI50 [35]: 4.13 µM | TGI [35]: > 100 µM | GI50 [37]: 5.03 µM | TGI [37]: > 100 µM | GI50 [38]: 2.63 µM | TGI [38]: 8.3 µM | GI50 [39]: 1.62 µM | TGI [39]: 3.01 µM | GI50 [40]: 3.77 µM | TGI [40]: > 100 µM | GI50 [41]: 6.31 µM | TGI [41]: > 100 µM | GI50 [42]: 3.72 µM | TGI [42]: > 100 µM | GI50 [43]: 1.89 µM | TGI [43]: 5.15 µM | GI50 [44]: 3.77 µM | TGI [44]: > 100 µM | GI50 [45]: 3.09 µM | TGI [45]: > 100 µM | GI50 [46]: 2.5 µM | TGI [46]: 7.65 µM | GI50 [47]: 1.14 µM | TGI [47]: 2.68 µM | GI50 [48]: 3.52 µM | TGI [48]: > 100 µM | GI50 [49]: 2.04 µM | TGI [49]: 5.04 µM | GI50 [50]: 2.6 µM | TGI [50]: > 100 µM | GI50 [51]: 3.63 µM | TGI [51]: > 100 µM | GI50 [52]: 5.24 µM | TGI [52]: > 100 µM | GI50 [53]: 2.91 µM | TGI [53]: 10.4 µM | GI50 [54]: 2.62 µM | TGI [54]: 17.3 µM | GI50 [55]: 3.11 µM | TGI [55]: 18.6 µM | GI50 [56]: 3.34 µM | TGI [56]: > 100 µM | GI50 [57]: 1.77 µM | TGI [57]: > 100 µM | GI50 [58]: 6.12 µM | TGI [58]: > 100 µM

— PubChem BioAssay (NCI)
